The Deep4Chem optical property database
Blank lines part the entries; values can stand above or below the compound they belong to.

Experiment: solvent given as SMILES

SMILES: c1ccc2c(c1)Sc1ccccc1N2c1ccc2c(c1)C1(CCCC1)c1cc(N3c4ccccc4Sc4ccccc43)ccc1-2
absorption maximum (in Cc1ccccc1): 308 nm

SMILES: Cc1nnc(-c2ccc(-n3c4ccccc4c4ccccc43)cc2)o1
absorption maximum (in Cc1ccccc1): 340 nm

SMILES: O=C1NC(=O)c2c1c1c3ccccc3[nH]c1c1[nH]c3ccccc3c21
absorption maximum (in C1CCOC1): 400 nm
absorption maximum (in CC#N): 402 nm
absorption maximum (in CC(C)OC(C)C): 391 nm
absorption maximum (in CCCCOCCCC): 393 nm
absorption maximum (in CCO): 405 nm
absorption maximum (in CCOC(C)=O): 398 nm
absorption maximum (in CN(C)C=O): 409 nm
absorption maximum (in Cc1ccccc1): 398 nm
absorption maximum (in ClCCl): 401 nm

SMILES: Cc1ccc2c(c1)C(C)(C)c1cc(C)ccc1N2c1ccc2c(c1)C(C)(C)c1cc(N3c4ccc(C)cc4C(C)(C)c4cc(C)ccc43)ccc1S2(=O)=O
absorption maximum (in ClCCl): 370 nm

SMILES: O=C(O)c1cc(O)c(O)c(O)c1
absorption maximum (in O): 258 nm

SMILES: Cn1c(=O)c(/N=N/c2ccc(/N=N/c3ccc(S(=O)(=O)O)cc3)cc2)c(O)c2ccccc21
absorption maximum (in C1CCOC1): 454 nm
absorption maximum (in CC(C)=O): 453 nm
absorption maximum (in CCOC(C)=O): 452 nm
absorption maximum (in CO): 452 nm
absorption maximum (in CS(C)=O): 460 nm
absorption maximum (in Cc1ccccc1): 458 nm
absorption maximum (in ClCCl): 457 nm
absorption maximum (in O): 447 nm

SMILES: CC(=O)O[B-]1(OC(C)=O)OC(/C=C/c2ccc(C)cc2)=CC(/C=C/c2ccc(C)cc2)=[O+]1
absorption maximum (in C1CCOC1): 434 nm
absorption maximum (in CC#N): 434 nm
absorption maximum (in CC(C)=O): 434 nm
absorption maximum (in CS(C)=O): 442 nm
absorption maximum (in Cc1ccccc1): 436 nm
absorption maximum (in ClC(Cl)Cl): 440 nm
absorption maximum (in ClCCl): 440 nm

SMILES: Cc1cc(C)c(B(c2c(C)cc(C)cc2C)c2c(C)cc(N3c4ccccc4Oc4ccccc43)cc2C)c(C)c1
absorption maximum (in Cc1ccccc1): 399 nm

SMILES: CCC1=C(C)C2=C(c3ccc(-c4c5ccccc5c(-c5ccccc5)c5ccccc45)cc3)c3c(C)c(CC)c(C)n3[B-](F)(F)[N+]2=C1C
absorption maximum (in CC#N): 523 nm
absorption maximum (in CCCCCC): 526 nm
absorption maximum (in CCO): 525 nm
absorption maximum (in CN(C)C=O): 526 nm
absorption maximum (in Cc1ccccc1): 529 nm
absorption maximum (in ClCCl): 527 nm

SMILES: C[C@]12SC(=O)C=C1c1nc(-c3ccccc3O)[nH]c1C1=CC(=O)S[C@@]12C
absorption maximum (in CC#N): 455 nm

SMILES: Cc1cc(C)c(C2=[N+]3C(=Cc4c(C)cc(C)n4[B-]3(F)F)c3ccccc32)[nH]1
absorption maximum (in C1CCOC1): 609 nm
absorption maximum (in CC#N): 601 nm
absorption maximum (in CCCCCC): 610 nm
absorption maximum (in CO): 603 nm
absorption maximum (in Cc1ccccc1): 616 nm
absorption maximum (in ClCCl): 609 nm

SMILES: CC1=C(C#Cc2ccc([Si](c3ccccc3)(c3ccccc3)c3ccccc3)cc2)C(C)=[N+]2C1=C(c1ccccc1)c1c(C)c(C#Cc3ccc([Si](c4ccccc4)(c4ccccc4)c4ccccc4)cc3)c(C)n1[B-]2(F)F
absorption maximum (in ClCCl): 575 nm

SMILES: CCCCCCC(CCCCCC)N1C(=O)c2cccc3c(-c4cc(OC)c(OC)c(OC)c4)ccc(c23)C1=O
absorption maximum (in CCCCCC): 354.8 nm
absorption maximum (in CCCCCCCCCCCCCC): 357 nm
absorption maximum (in CCCCCCCCCCCO): 362.6 nm
absorption maximum (in CCCCO): 361.4 nm
absorption maximum (in CN(C)C=O): 365.6 nm
absorption maximum (in Cc1ccccc1): 360.8 nm
absorption maximum (in ClC(Cl)Cl): 362.2 nm

SMILES: COc1cccc(OC)c1-c1c2ccc(=[N+]3CCN(C(=O)OC(C)(C)C)CC3)cc-2oc2cc(N3CCN(C(=O)OC(C)(C)C)CC3)ccc12
absorption maximum (in ClCCl): 555 nm

The remaining lines, values ahead:

absorption maximum (in CCCCCC): 445 nm
SMILES: CC(C)[Si](C#Cc1c2ccccc2c(C#C[Si](C(C)C)(C(C)C)C(C)C)c2nc3c(nc12)C1c2ccccc2C3c2ccccc21)(C(C)C)C(C)C

absorption maximum (in C1CCOC1): 379 nm
SMILES: COc1ccc(C(=Cc2ccc(/C=C/c3ccc(C#N)cc3)cc2)c2ccc(OC)cc2)cc1

absorption maximum (in ClCCl): 338 nm
SMILES: CC(C)(C)NC(=O)c1ccc(Br)c2ccc3c4ccc(F)cc4c4cc(F)ccc4c3c12

absorption maximum (in ClCCl): 594 nm
SMILES: CCCCN1C(=O)C2=C(c3ccc(-c4ccc5c(c4)C(C)(C)c4ccccc4-5)cc3)[N-]C(=O)C2=C1c1ccc(-c2ccc3c(c2)C(C)(C)c2ccccc2-3)cc1

absorption maximum (in ClCCl): 445 nm
SMILES: COc1ccc2c(c1)CCC1=C(C#Cc3ccc(Cl)cc3)O[B-](F)(F)[O+]=C12

absorption maximum (in ClCCl): 465 nm
SMILES: COc1ccc2c(c1)CCC1=C(C#Cc3cc4ccccc4c4ccccc34)O[B-](F)(F)[O+]=C12

absorption maximum (in C1CCCCC1): 412 nm
absorption maximum (in CC#N): 439 nm
absorption maximum (in CCO): 438 nm
absorption maximum (in c1ccccc1): 433 nm
SMILES: CN(C)c1cccc2c1-c1ccccc1C2=O

absorption maximum (in ClCCl): 430 nm
SMILES: CN(C)c1ccc(N2c3sc4ccccc4c3Sc3c2sc2ccccc32)cc1

absorption maximum (in ClC(Cl)Cl): 326 nm
SMILES: CCCCn1c2ccccc2c2ccc3c4cc(-c5ccc(C(F)(F)F)cc5)ccc4n(CCCC)c3c21

absorption maximum (in CCO): 595 nm
absorption maximum (in ClC(Cl)Cl): 601 nm
absorption maximum (in O): 596 nm
SMILES: CCOC(=O)c1ccccc1-c1c2ccc(=[N+](CC)CC)cc-2oc2c1c(=O)oc1cc(N(CC)CC)ccc12

absorption maximum (in C1CCCCC1): 357 nm
absorption maximum (in CC#N): 362 nm
absorption maximum (in CC(C)O): 361 nm
absorption maximum (in CO): 363 nm
absorption maximum (in CS(C)=O): 369 nm
absorption maximum (in ClC(Cl)Cl): 362 nm
absorption maximum (in c1ccccc1): 364 nm
SMILES: CN(C)c1ccc2nc(-c3ccccc3)sc2c1
